Experimental data as given in article PMC9860317, “Regulation of the DEAH/RHA helicase Prp43 by the G-patch factor Pfa1” (Proceedings of the National Academy of Sciences of the …, 2022).

What was measured:
ctPrp43 (Prp43) = target: T1, ctPrp43 (Prp43) (Thermochaetoides thermophila, UniProt G0RY84); test: coupled ATPase assay, NADH absorption, Michaelis-Menten titration; type: biochemical; conditions: no Pfa1(gp), no ssRNA
T1 construct: gene CTHT_0005780; expressed in E. coli Rosetta II as N-terminal GST fusion with C-terminal His6 or Strep tag; SEC purified; borders in SI
Source text: coupled ATPase assay, NADH absorption, Michaelis-Menten titration on ctPrp43 (Prp43) | Michaelis–Menten titration and table with ATP turnover numbers (kcat) and dissociation constants (KM)

ctPrp43–Pfa1(gp) complex = target: T2, ctPrp43–Pfa1(gp) complex (Thermochaetoides thermophila, UniProt G0RY84); test: as above; type: biochemical; conditions: with Pfa1(gp), no ssRNA
T2 construct: gene CTHT_0005780; Prp43 with C-terminal His6 or Strep tag plus isolated G-patch motif of Pfa1; both from E. coli Rosetta II as GST fusions; borders in SI; with G-patch protein Pfa1 (G-patch motif)
Source text: coupled ATPase assay, NADH absorption, Michaelis-Menten titration on ctPrp43–Pfa1(gp) complex | showing the stimulation of Prp43 ATPase activity by Pfa1(gp) and ssRNA

T2 sequence (G0RY84 entry or part of it, one chain of several): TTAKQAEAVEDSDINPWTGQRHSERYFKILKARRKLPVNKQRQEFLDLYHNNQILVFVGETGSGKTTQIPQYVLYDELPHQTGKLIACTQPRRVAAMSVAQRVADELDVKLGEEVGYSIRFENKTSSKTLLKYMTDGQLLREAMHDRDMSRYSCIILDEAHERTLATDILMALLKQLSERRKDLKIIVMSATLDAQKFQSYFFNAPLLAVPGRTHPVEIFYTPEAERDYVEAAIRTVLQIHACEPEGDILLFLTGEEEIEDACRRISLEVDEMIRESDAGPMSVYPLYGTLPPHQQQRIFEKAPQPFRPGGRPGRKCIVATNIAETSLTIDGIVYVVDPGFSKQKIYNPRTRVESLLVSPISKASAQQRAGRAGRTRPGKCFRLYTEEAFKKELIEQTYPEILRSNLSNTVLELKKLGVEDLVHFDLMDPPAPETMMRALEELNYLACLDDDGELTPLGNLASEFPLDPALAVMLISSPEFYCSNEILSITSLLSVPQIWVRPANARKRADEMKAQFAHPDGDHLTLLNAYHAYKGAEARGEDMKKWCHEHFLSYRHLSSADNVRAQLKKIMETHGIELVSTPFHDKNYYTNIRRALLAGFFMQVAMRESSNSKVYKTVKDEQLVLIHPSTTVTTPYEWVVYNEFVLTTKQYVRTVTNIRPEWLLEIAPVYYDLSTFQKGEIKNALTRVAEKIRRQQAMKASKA
T1 sequence (G0RY84 entry or part of it): as the sequence (G0RY84 entry or part of it, one chain of several) above

Km (ctPrp43 (Prp43)): 29.5 ± 6 µM | Km (ctPrp43–Pfa1(gp) complex): 4.5 ± 0.3 µM
Compound: Nc1ncnc2c1ncn2[C@@H]1O[C@H](COP(=O)(O)OP(=O)(O)OP(=O)(O)O)[C@@H](O)[C@H]1O [ATP]
